Laboratory results: article PMC9055273 (RSC Advances, 2020)

System: bacteria
Settings: 10 μM

c1ccncc1 [pyridine]
Inhibition of bacterial growth: did not obviously inhibit bacterial growth
